{
  "source": "patent US6380227B1",
  "about": "“Fermentative preparation process for and crystal forms of cytostatics” (Novartis AG, priority 1998, dated 2002)",
  "assay": "Stability of crystal forms of epothilone B",
  "settings": "storage, no test described",
  "data": [
    {"molecule": "C/C(=C\\c1csc(C)n1)[C@@H]1C[C@@H]2O[C@]2(C)CCC[C@H](C)[C@H](O)[C@@H](C)C(=O)C(C)(C)[C@@H](O)CC(=O)O1", "note": "[crystal form A, epothilone B]", "values": [
      {"measurement": "stability of the solid crystal form", "value": "especially stable"}
    ]}
  ]
}
